Reference: US20240016822A1, “USE OF NK1 ANTAGONIST PRODRUG COMPOUND IN COMBINATION WITH 5-HT3 RECEPTOR ANTAGONIST” (Shanghai Shengdi Pharmaceutical Co., Ltd., priority 2020, published 2024)
Like-named read-outs stand apart in the source and are kept apart here.

Columns and labels:
[1] = Water solubility at different pH values; type: physicochemical
Protocol: • 1.1 Preparation of reagent • Reagent: NaH2PO4·2H2O • 1.2 Preparation method
The preparation according to 100 mL specification is as follows: • pH=3.0: phosphate buffer: 100 mL of 2 mmol/L NaH2PO4, adjusted to pH 3.0 with 0.1 M H3PO4. • pH=4.0: phosphate buffer: 100 mL of 2 mmol/L NaH2PO4, […] 100 mL of 2 mmol/L Na2HPO4, adjusted to pH 9.0 with 0.1 M NaOH. • 1.3 Test method
A proper amount of a test compound was weighed, and the solution was added in small batches. The mixture was stirred until the test compound was dissolved. The content of the compound in the solution was determined. The data are shown in Table 1. • 2.1 Stability test of compound
1 mg of the sample was weighed and added to a vial. The vial was placed in a vacuum bag, which was vacuumized and placed in a container filled with allochroic silica gel. The container was sealed. Two parts were prepared in parallel. Adequate parts were prepared according to sampling time points, and the two parts for each sampling time point were placed at 4° C. and room temperature, respectively. The solubility of the compound of formula (I) was determined at different pH values.

red blood cells (RBCs) = assay: Hemolytic effect on rabbit red blood cell suspension; type: cell-based; conditions: 2% rabbit RBC suspension; test sample in PBS (pH 7.4 or pH 5), 0.4-2 mg/mL; concentration up to 2 mg/mL
Protocol: 10 mL of red blood cells (RBCs) were randomly collected from the jugular vein or central auricular artery of a rabbit (EDTA whole blood), placed in a conical flask with glass beads, and shaken for 10 min to remove fibrinogen, resulting in defibrinated blood. 10 volumes of sodium chloride injection were added. The mixture was shaken uniformly and centrifuged at 1500 rpm for 10 min, and the supernatant was removed. […] The obtained red blood cells were prepared into 2% (v/v) suspension with sodium chloride injection for later use.
A test sample (the compound of formula (I)) was dissolved in PBS (pH 7.4 or pH 5), and the solution was filtered and prepared to the concentrations of 0.4 mg/mL, 0.8 mg/mL, 1.2 mg/mL, 1.6 mg/mL, and 2 mg/mL for later use.
A certain amount of the test sample solution was added to the above […] for testing in the supernatant.
The hemolytic effect of the compound provided by the present disclosure was determined by this method.
Rolapitant emulsion (formula: 4.4% polyethylene glycol 15-hydroxystearate, 1.1% medium chain triglyceride, and 0.66% soybean oil) was prepared by reference to the method described in CN102573475, and prepared with PBS to concentrations of 0.18 mg/mL, 0.09 mg/mL, 0.045 mg/mL, 0.023 mg/mL, 0.011 mg/mL, […] for later use.
The hemolytic effect was determined by the method described in Test Example 2.

[2] = Pharmacokinetic test in cynomolgus monkeys; type: in vivo
Protocol: With cynomolgus monkeys as test animals, the plasma concentrations of the compound of formula (I) at different time points after administration by injection were determined by LC/MS/MS. The pharmacokinetic performance of the compound was studied in cynomolgus monkeys and its pharmacokinetic characteristics were evaluated.
A certain amount of the test compound was weighed and prepared into a solution at pH 4.0 with 20 mmol/L sodium dihydrogen phosphate for later use. • 1.1 Administration Intravenous drip, injection time: about 30 min, administration dose: 3.54 mg/kg, administration concentration: […], and administration volume: 5 mL/kg. • 1.2 Operation
Blood was collected from femoral vein before administration and 5 min, 0.25 h, 0.5 h, 1 h, 2 h, 4 h, 6 h, 8 h, 10 h and 24 h after administration, about 0.6 mL for each sample. The blood samples were anticoagulated with sodium heparin and placed on ice immediately after collection. The blood samples were placed in marked centrifuge tubes after collection, and plasma was isolated by centrifugation (centrifugation conditions: 2200 g of centrifugal force, 10 min, 2-8° C.).
The contents of the compound of formula (I) and rolapitant in the plasma samples were determined by LC/MS/MS. • 1.3 Pharmacokinetic parameters

**Q.** With `C[C@@H](OC[C@@]1(c2ccccc2)CC[C@]2(CCC(=O)N2)CN1C(=O)OCOP(=O)(O)O)c1cc(C(F)(F)F)cc(C(F)(F)F)c1` [compound of formula (I)] as the molecule, how does the solubility ([1]; pH 7.4, thermodynamic from solid, pH 7.4, read-out: Saturated solubility) read?
**A.** The solubility was 19.8 mg/mL.

**Q.** And the solubility ([1]; pH 7.4, thermodynamic from solid, pH 7.4, read-out: Solubility)?
**A.** The solubility was 26 mg/mL.

**Q.** And the solubility ([1]; phosphate buffer, pH 9, aqueous buffer, thermodynamic from solid, pH 9.0, read-out: Saturated solubility)?
**A.** The solubility was 21.4 mg/mL.

**Q.** And the solubility ([1]; phosphate buffer, pH 9, aqueous buffer, thermodynamic from solid, pH 9.0, read-out: Solubility)?
**A.** Its solubility is 28 mg/mL.

**Q.** What about the Hemolytic effect (red blood cells (RBCs)) of the same molecule?
**A.** The Hemolytic effect was “no hemolytic effect”.

**Q.** What about the half-life ([2]; cynomolgus monkey, analyte compound of formula (I) in plasma, intravenous drip about 30 min, 3.54 mg/kg compound of formula (I)) of the same molecule?
**A.** The half-life was 28.2 min.

**Q.** What about the AUC(0-t) ([2]; cynomolgus monkey, analyte compound of formula (I) in plasma, intravenous drip about 30 min, 3.54 mg/kg compound of formula (I), read-out: AUC0-24 h) of the same molecule?
**A.** Its AUC(0-t) is 1430 ng·h/mL.

**Q.** What about the MRT inf ([2]; cynomolgus monkey, analyte compound of formula (I) in plasma, intravenous drip about 30 min, 3.54 mg/kg compound of formula (I), read-out: MRT 0-∞) of the same molecule?
**A.** Its MRT inf is 15.6 min.

**Q.** And the “Conversion of prodrug into active metabolite rolapitant” value ([2]; cynomolgus monkeys, intravenous drip 3.54 mg/kg)?
**A.** Its value is “quickly converted into the active metabolite rolapitant”.
